# According to patent US20060135551A1, “Novel heterocyclic compounds and their pharmaceutical compositions” (priority 2004, published 2006):
# Target: T1, Recombinant CETP enzyme (Homo sapiens, UniProt P11597)
# T1 construct: purchased Cardiovascular Targets
# T1 sequence (P11597 18-493): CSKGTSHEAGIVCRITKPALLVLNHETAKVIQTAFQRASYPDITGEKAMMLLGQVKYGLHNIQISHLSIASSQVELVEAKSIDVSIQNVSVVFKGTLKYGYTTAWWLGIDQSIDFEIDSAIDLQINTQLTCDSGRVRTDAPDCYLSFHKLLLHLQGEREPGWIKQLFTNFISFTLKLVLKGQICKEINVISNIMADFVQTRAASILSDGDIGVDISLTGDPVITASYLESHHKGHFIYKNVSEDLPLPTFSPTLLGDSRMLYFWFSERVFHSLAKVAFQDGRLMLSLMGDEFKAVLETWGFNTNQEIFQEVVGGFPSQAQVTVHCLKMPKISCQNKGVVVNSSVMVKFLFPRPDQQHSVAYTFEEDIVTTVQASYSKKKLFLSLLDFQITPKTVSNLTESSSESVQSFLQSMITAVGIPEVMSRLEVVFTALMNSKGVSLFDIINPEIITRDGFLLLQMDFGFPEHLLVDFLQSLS
# Assay: In vitro fluorescence-based CETP inhibition assay (BODIPY-CE transfer from donor to acceptor microemulsions)
# Format: biochemical
# Conditions: recombinant CETP 0.14 ng/μl; transfer of fluorescent cholesteryl ester monitored over 2 hours; compared to DMSO controls
# Protocol: An in vitro fluorescence-based assay to identify CETP inhibitors was developed from modifications of the protocols outlined in Bisgaier et al., J Lipid Res., 34(9): 1625-34 (1993) and Epps et al., Chem Phys Lipids., 77(1): 51-63 (1995). Acceptor and donor lipid microemulsions were prepared according to Bisgaier et al., 1993, except that the buffer was prepared with 0.67 ug/ml human HDL (Calbiochem). Donor microemulsions contained the fluorescent cholesteryl ester analog BODIPY-CE (Molecular Probes), characterized by excitation and emission maxima at 503 nm and 518 nm, respectively. The CETP-mediated transfer of fluorescent cholesteryl ester to acceptor particles was monitored over a 2-hour time period using the FAM filter set (excitation 492 nm, emission 516 nm) in an MX3000P fluorescent plate reader (Stratagene). Recombinant CETP enzyme (Cardiovascular Targets) was used at 0.14 ng/μl, final concentration, to achieve lipid transfer. CETP inhibition by compounds was compared to DMSO controls and graphed as a percentage of the control CETP activity over 2 hours. The IC50 curves for CETP inhibition were generated from the activity profiles. Active compounds were also tested for CETP inhibition as above, but in the presence of 3% human serum albumin, fraction V (Calbiochem).
# Using this protocol, IC50 data for CETP inhibition were obtained.
smiles,measurement,value
"CCOC(=O)N1c2c(c(C)nn2C)C(N(Cc2cc(C(F)(F)F)cc(C(F)(F)F)c2)C(=O)OC)CC1CC (stereo not shown) [Example E1, 4-[(3,5-Bis-trifluoromethyl-benzyl)-methoxycarbonyl-amino]-6-ethyl-1,3-dimethyl-1,4,5,6-tetrahydro-pyrazolo[3,4-b]pyridine-7-carboxylic acid ethyl ester]",IC50,4.6 µM
